Experimental data: ChEMBL document CHEMBL3797052 (Eur J Med Chem, 2016)

How the values were obtained:
[1] = Antiproliferative activity against human SKOV3 cells assessed as growth inhibition after 48 hrs by sulforhodamine B assay; format: functional; conditions: SK-OV-3, 48 h; for CC50: read-out: LC50 (the source's name)
SR [2] = assay: Antiproliferative activity against human SR cells assessed as cell growth at 10^-7 M after 48 hrs by sulforhodamine B assay; format: functional; conditions: read-out: Activity
KM12 = assay: Antiproliferative activity against human KM12 cells assessed as cell growth at 10^-7 M after 48 hrs by sulforhodamine B assay; format: functional; conditions: KM12, 48 h, read-out: Activity
[3] = Antiproliferative activity against human SNB75 cells assessed as cell growth at 10^-7 M after 48 hrs by sulforhodamine B assay; format: functional; conditions: SNB-75, 48 h, read-out: Activity
[4] = Antiproliferative activity against human IGROV1 cells assessed as growth inhibition after 48 hrs by sulforhodamine B assay; format: functional; conditions: IGROV-1, 48 h; for CC50: read-out: LC50 (the source's name)
SK-MEL-5 [5] = assay: Antiproliferative activity against human SK-MEL-5 cells assessed as growth inhibition after 48 hrs by sulforhodamine B assay; format: functional; conditions: SK-MEL-5, 48 h; for CC50: read-out: LC50 (the source's name)
Malme-3M = assay: Antiproliferative activity against human MALME-3M cells assessed as cell growth at 10^-7 M after 48 hrs by sulforhodamine B assay; format: functional; conditions: read-out: Activity
SK-MEL-5 [6] = assay: Antiproliferative activity against human SK-MEL-5 cells assessed as cell growth at 10^-7 M after 48 hrs by sulforhodamine B assay; format: functional; conditions: SK-MEL-5, 48 h, read-out: Activity
[7] = Antiproliferative activity against human OVCAR5 cells assessed as cell growth at 10^-7 M after 48 hrs by sulforhodamine B assay; format: functional; conditions: OVCAR-5, 48 h, read-out: Activity
[8] = Antiproliferative activity against human TK10 cells assessed as cell growth at 10^-7 M after 48 hrs by sulforhodamine B assay; format: functional; conditions: TK-10, 48 h, read-out: Activity
[9] = Antiproliferative activity against human DU145 cells assessed as cell growth at 10^-7 M after 48 hrs by sulforhodamine B assay; format: functional; conditions: DU-145, 48 h, read-out: Activity
MDA-MB-231 = assay: Antiproliferative activity against human MDA-MB-231 cells assessed as cell growth at 10^-7 M after 48 hrs by sulforhodamine B assay; format: functional; conditions: MDA-MB-231, 48 h, read-out: Activity
[10] = target: Serine/threonine-protein kinase B-raf (Homo sapiens, UniProt P15056, V600E); assay: Inhibition of BRAF V600E mutant (unknown origin) measured after 40 mins by scintillation counting
CYP2C9 = CYP2C9 (Homo sapiens, UniProt P11712); assay: Inhibition of recombinant human CYP2C9 assessed as remaining enzyme activity using CYP2C9 green as substrate at 10 uM after 5 mins in presence of NADP by fluorescence plate reader analysis; format: ADME; conditions: recombinant human CYP2C9, probe CYP2C9 green, read-out: Activity
[11] = target: Voltage-gated inwardly rectifying potassium channel KCNH2 (Homo sapiens, UniProt Q12809); assay: Inhibition of human ERG assessed as reduction in channel current by automated patch-clamp electrophysiology assay
[12] = Antiproliferative activity against human MOLT4 cells assessed as cell growth at 10^-8 M after 48 hrs by sulforhodamine B assay; format: functional; conditions: MOLT-4, 48 h, read-out: Activity
[13] = Antiproliferative activity against human HOP92 cells assessed as cell growth at 10^-8 M after 48 hrs by sulforhodamine B assay; format: functional; conditions: HOP-92, 48 h, read-out: Activity
NCI-H226 = assay: Antiproliferative activity against human NCI-H226 cells assessed as cell growth at 10^-8 M after 48 hrs by sulforhodamine B assay; format: functional; conditions: NCI-H226, 48 h, read-out: Activity
SR [14] = assay: Antiproliferative activity against human SR cells assessed as cell growth at 10^-6 M after 48 hrs by sulforhodamine B assay; format: functional; conditions: read-out: Activity
EKVX = assay: Antiproliferative activity against human EKVX cells assessed as cell growth at 10^-6 M after 48 hrs by sulforhodamine B assay; format: functional; conditions: read-out: Activity
NCI-H322M = assay: Antiproliferative activity against human NCI-H322M cells assessed as cell growth at 10^-6 M after 48 hrs by sulforhodamine B assay; format: functional; conditions: read-out: Activity
[15] = Antiproliferative activity against human SW620 cells assessed as cell growth at 10^-6 M after 48 hrs by sulforhodamine B assay; format: functional; conditions: SW-620, 48 h, read-out: Activity
[16] = Antiproliferative activity against human RPMI8226 cells assessed as cell growth at 10^-4 M after 48 hrs by sulforhodamine B assay; format: functional; conditions: RPMI-8226, 48 h, read-out: Activity
SR [17] = assay: Antiproliferative activity against human SR cells assessed as cell growth at 10^-4 M after 48 hrs by sulforhodamine B assay; format: functional; conditions: read-out: Activity
NCI-H460 = assay: Antiproliferative activity against human NCI-H460 cells assessed as cell growth at 10^-4 M after 48 hrs by sulforhodamine B assay; format: functional; conditions: NCI-H460, 48 h, read-out: Activity
NCI-H522 = assay: Antiproliferative activity against human NCI-H522 cells assessed as cell growth at 10^-4 M after 48 hrs by sulforhodamine B assay; format: functional; conditions: NCI-H522, 48 h, read-out: Activity
[18] = Antiproliferative activity against human COLO205 cells assessed as cell growth at 10^-4 M after 48 hrs by sulforhodamine B assay; format: functional; conditions: COLO 205, 48 h, read-out: Activity
[19] = Antiproliferative activity against human SF539 cells assessed as cell growth at 10^-4 M after 48 hrs by sulforhodamine B assay; format: functional; conditions: SF-539, 48 h, read-out: Activity
SK-MEL-5 [20] = assay: Antiproliferative activity against human SK-MEL-5 cells assessed as cell growth at 10^-8 M after 48 hrs by sulforhodamine B assay; format: functional; conditions: SK-MEL-5, 48 h, read-out: Activity
A498 = assay: Antiproliferative activity against human A498 cells assessed as cell growth at 10^-8 M after 48 hrs by sulforhodamine B assay; format: functional; conditions: A498, 48 h, read-out: Activity
SN12C [21] = assay: Antiproliferative activity against human SN12C cells assessed as cell growth at 10^-8 M after 48 hrs by sulforhodamine B assay; format: functional; conditions: read-out: Activity
MCF7 [22] = assay: Antiproliferative activity against human MCF7 cells assessed as cell growth at 10^-8 M after 48 hrs by sulforhodamine B assay; format: functional; conditions: MCF7, 48 h, read-out: Activity
ACHN = assay: Antiproliferative activity against human ACHN cells assessed as cell growth at 10^-6 M after 48 hrs by sulforhodamine B assay; format: functional; conditions: read-out: Activity
SN12C [23] = assay: Antiproliferative activity against human SN12C cells assessed as cell growth at 10^-6 M after 48 hrs by sulforhodamine B assay; format: functional; conditions: read-out: Activity
MCF7 [24] = assay: Antiproliferative activity against human MCF7 cells assessed as cell growth at 10^-6 M after 48 hrs by sulforhodamine B assay; format: functional; conditions: MCF7, 48 h, read-out: Activity
SN12C [25] = assay: Antiproliferative activity against human SN12C cells assessed as cell growth at 10^-4 M after 48 hrs by sulforhodamine B assay; format: functional; conditions: read-out: Activity
[26] = Antiproliferative activity against human PC3 cells assessed as cell growth at 10^-4 M after 48 hrs by sulforhodamine B assay; format: functional; conditions: PC-3, 48 h, read-out: Activity

Chain of Serine/threonine-protein kinase B-raf (P15056 2-766 V600E limits assumed): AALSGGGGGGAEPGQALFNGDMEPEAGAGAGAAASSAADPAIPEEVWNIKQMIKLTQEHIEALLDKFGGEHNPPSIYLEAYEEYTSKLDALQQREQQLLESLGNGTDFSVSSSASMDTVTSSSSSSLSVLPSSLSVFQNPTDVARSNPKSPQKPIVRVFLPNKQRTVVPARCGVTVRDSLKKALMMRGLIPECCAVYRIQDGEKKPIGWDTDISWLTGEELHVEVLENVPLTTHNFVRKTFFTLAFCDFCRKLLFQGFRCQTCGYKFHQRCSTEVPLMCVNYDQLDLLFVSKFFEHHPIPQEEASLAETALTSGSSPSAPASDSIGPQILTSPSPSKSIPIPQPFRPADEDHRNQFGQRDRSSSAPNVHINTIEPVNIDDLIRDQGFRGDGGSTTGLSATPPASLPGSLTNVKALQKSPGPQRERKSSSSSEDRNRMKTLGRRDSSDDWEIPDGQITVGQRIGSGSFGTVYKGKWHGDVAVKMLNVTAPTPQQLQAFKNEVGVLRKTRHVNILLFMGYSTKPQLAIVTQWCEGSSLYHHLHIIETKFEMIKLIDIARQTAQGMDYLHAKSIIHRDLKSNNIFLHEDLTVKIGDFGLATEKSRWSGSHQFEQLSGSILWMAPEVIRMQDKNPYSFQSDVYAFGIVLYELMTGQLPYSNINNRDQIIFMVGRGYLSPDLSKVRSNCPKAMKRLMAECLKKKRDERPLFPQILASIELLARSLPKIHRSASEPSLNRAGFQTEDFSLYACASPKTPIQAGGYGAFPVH
Chain of CYP2C9 (P11712 whole entry): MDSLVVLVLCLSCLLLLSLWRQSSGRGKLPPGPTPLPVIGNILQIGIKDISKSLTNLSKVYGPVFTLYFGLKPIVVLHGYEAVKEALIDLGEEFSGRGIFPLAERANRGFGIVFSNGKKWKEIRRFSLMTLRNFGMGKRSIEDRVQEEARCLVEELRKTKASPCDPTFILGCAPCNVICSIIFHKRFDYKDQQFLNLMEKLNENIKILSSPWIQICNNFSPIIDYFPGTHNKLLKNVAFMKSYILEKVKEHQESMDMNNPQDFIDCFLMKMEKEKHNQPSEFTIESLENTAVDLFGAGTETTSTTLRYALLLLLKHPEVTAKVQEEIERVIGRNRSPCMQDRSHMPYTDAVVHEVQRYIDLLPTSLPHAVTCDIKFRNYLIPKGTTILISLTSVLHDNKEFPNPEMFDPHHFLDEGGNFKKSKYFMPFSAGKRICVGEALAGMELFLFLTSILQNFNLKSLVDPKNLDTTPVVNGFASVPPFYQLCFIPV
Chain of Voltage-gated inwardly rectifying potassium channel KCNH2 (Q12809 whole entry): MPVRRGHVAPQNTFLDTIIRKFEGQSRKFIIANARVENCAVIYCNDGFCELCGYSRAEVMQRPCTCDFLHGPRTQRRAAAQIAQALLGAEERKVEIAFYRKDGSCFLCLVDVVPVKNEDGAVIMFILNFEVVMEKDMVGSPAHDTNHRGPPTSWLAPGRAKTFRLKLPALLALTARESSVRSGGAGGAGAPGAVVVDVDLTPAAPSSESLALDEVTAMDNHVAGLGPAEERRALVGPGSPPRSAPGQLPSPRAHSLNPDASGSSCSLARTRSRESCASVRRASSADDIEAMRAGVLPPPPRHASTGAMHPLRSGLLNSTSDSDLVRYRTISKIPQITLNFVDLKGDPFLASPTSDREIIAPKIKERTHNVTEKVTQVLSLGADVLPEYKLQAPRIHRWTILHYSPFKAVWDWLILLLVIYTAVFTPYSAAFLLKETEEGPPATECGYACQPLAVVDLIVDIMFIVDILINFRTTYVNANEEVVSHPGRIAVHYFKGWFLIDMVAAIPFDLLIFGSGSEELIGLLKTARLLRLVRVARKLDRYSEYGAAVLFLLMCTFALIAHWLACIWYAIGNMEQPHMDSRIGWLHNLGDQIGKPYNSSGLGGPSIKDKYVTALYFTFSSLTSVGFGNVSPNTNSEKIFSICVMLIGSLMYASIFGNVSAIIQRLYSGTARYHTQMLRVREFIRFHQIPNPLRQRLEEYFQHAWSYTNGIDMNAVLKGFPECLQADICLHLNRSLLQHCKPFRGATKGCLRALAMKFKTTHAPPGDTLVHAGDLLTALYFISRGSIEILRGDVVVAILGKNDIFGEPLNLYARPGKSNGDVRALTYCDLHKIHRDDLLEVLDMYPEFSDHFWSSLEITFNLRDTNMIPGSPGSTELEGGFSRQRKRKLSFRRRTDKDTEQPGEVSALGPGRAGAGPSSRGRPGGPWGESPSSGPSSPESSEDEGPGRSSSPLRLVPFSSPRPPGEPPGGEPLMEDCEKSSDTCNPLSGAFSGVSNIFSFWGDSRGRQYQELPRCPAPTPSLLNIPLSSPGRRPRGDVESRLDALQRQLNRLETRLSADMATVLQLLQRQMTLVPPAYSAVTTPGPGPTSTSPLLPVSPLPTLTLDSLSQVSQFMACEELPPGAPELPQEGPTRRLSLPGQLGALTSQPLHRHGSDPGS

CNC(=O)c1cc(Oc2ccc3nc(NC(=O)c4cc(C(F)(F)F)cc(C(F)(F)F)c4)sc3c2)ccn1
GI50 [1]: 2.52 µM | TGI [1]: 7.98 µM | CC50 [1]: 73.7 µM | growth at 0.1 µM (SR [2]): 89% | growth at 0.1 µM (KM12): 99% | growth at 0.1 µM [3]: 77% | GI50 [4]: 4.26 µM | TGI [4]: 27 µM | CC50 [4]: > 100 µM | GI50 (SK-MEL-5 [5]): 1.68 µM | TGI (SK-MEL-5 [5]): 3.63 µM | CC50 (SK-MEL-5 [5]): 7.87 µM | growth at 0.1 µM (Malme-3M): 90% | growth at 0.1 µM (SK-MEL-5 [6]): 96% | growth at 0.1 µM [7]: 80% | growth at 0.1 µM [8]: 94% | growth at 0.1 µM [9]: 105% | growth at 0.1 µM (MDA-MB-231): 107% | IC50 [10]: 4.3 µM | activity at 5 min, 10 µM (CYP2C9): 32.7% | IC50 [11]: 48.4 µM | growth at 0.01 µM [12]: 86% | growth at 0.01 µM [13]: 91% | growth at 0.01 µM (NCI-H226): 99% | growth at 1 µM (SR [14]): 100% | growth at 1 µM (EKVX): 90% | growth at 1 µM (NCI-H322M): 52% | growth at 1 µM [15]: 105% | growth at 100 µM [16]: 15% | growth at 100 µM (SR [17]): -23% | growth at 100 µM (NCI-H460): -69% | growth at 100 µM (NCI-H522): -61% | growth at 100 µM [18]: -88% | growth at 100 µM [19]: -61% | growth at 0.01 µM (SK-MEL-5 [20]): 95% | growth at 0.01 µM (A498): 69% | growth at 0.01 µM (SN12C [21]): 98% | growth at 0.01 µM (MCF7 [22]): 93% | growth at 1 µM (ACHN): 96% | growth at 1 µM (SN12C [23]): 96% | growth at 1 µM (MCF7 [24]): 87% | growth at 100 µM (SN12C [25]): -53% | growth at 100 µM [26]: -42%

CNC(=O)c1cc(Oc2ccc(NC(=O)Nc3ccc(Cl)c(C(F)(F)F)c3)cc2)ccn1 [SORAFENIB]
GI50 [1]: 2.51 µM | TGI [1]: 12.6 µM | CC50 [1]: 63.1 µM | GI50 [4]: 2.51 µM | TGI [4]: 15.9 µM | CC50 [4]: 79.4 µM | TGI (SK-MEL-5 [5]): 3.16 µM | CC50 (SK-MEL-5 [5]): 5.01 µM
